The values below come from patent US20110009420A1, “Histamine H3 Receptor Ligands” (HIGH POINT PHARMACEUTICALS, LLC, priority 2008, published 2011).

In data set [1] the target is T1, human histamine H3 receptor (Homo sapiens, UniProt Q9Y5N1).
T1 construct: expressed in transfected cells
Description: functional [35S]GTPγS binding assay (antagonist potency, inhibition of RAMHA-stimulated binding). Type of data set: biochemical. The conditions noted are these: for [35S]GTPγS binding Ki(nM): functional Ki from full dose-response IC50 by Cheng-Prusoff, 10 nM RAMHA, re-synthesized compounds. On the procedure: CHO-cells, stably expressing the human histamine H3 receptor, were harvested and membranes were prepared by threefold homogenization in a HEPES buffer (20 mM HEPES, 0.1-10 mM EDTA; pH 7.4). […] The hits were subsequently tested in full dose-response curves for functional IC50 determinations. After 2 h incubation at RT with gentle shaking of the plate, the plate was centrifuged at 370 RCF for 10 min and subsequently the radioactivity was counted in a Packard TopCount-NXT.
The IC50 values were calculated by non-linear regression analysis using GraphPad Prism.

Setting [2] is: read-out: [35S]GTPγS binding Ki.

Structures can show the parent of a compound that is named as a salt. Where two headings read alike, the source gives them in different places.

T1 sequence (Q9Y5N1 whole entry): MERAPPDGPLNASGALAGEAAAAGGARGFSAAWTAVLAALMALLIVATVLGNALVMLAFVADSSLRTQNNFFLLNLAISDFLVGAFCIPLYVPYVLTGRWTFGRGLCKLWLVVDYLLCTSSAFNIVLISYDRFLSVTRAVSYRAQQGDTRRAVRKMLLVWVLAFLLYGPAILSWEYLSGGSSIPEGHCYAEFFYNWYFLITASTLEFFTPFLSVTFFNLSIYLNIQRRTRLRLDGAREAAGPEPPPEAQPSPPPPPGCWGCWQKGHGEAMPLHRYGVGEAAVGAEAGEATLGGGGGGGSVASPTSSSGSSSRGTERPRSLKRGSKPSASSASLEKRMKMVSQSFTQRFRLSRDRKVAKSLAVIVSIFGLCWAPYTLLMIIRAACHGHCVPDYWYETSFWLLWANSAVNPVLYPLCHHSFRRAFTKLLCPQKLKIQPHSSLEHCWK

In turn, `O=C(c1cc2ccccc2s1)N1CCN(CCCN2CCCCC2)CC1` (as salt: hydrochloride) (hydrate or solvate) [Compound A11B12] registered a melting point of 265 to 267 °C. The compound `O=C(c1cc2ccccc2o1)N1CCN(CCCN2CCCCC2)CC1` (as salt: hydrochloride) (hydrate or solvate) [Compound A12B12, Benzofuran-2-yl-(4-(3-(piperidin-1-yl)propyl)piperazin-1-yl)methanone, dihydrochloride] returned a melting point of 253 to 255 °C.

In turn, `COc1ccc2oc(C(=O)N3CCN(CCCN4CCCCC4)CC3)cc2c1` (as salt: hydrochloride) (hydrate or solvate) [Compound A13B12] returned a melting point of 255 to 257 °C. Regarding `O=C(Cc1ccc(-c2ccccc2)cc1)N1CCN(CCCN2CCCCC2)CC1` (as salt: hydrochloride) (hydrate or solvate) [Compound A15B12], the melting point was in the range of 274 to 276 °C. Take `O=C(CC1c2ccccc2-c2ccccc21)N1CCN(CCCN2CCCCC2)CC1` (as salt: hydrochloride) (hydrate or solvate) [Compound A18B12, 2-(9H-Fluoren-9-yl)-1-(4-(3-(piperidin-1-yl)propyl)piperazin-1-yl)ethanone, dihydrochloride]: the melting point fell in the range of 263 to 265 °C. `O=C(Cc1c[nH]c2ccccc12)N1CCN(CCCN2CCCCC2)CC1` (as salt: hydrochloride) [Compound A14B12] displayed a melting point of 256 to 258 °C. `O=C(c1cccc(Oc2ccccc2)c1)N1CCN(CCCN2CCCCC2)CC1` (as salt: hydrochloride) [Compound A21B12] gave a melting point of 274 to 276 °C.

For the compound `O=C(c1cc2ccccc2s1)N1CCN(CCCN2CCCCC2)CC1` [Compound A11B12], the inhibition at 3.5 µM in data set [1] came out at 57%. The inhibition constant Ki in data set [1] (setting [2]) was 35 nM.

Take `O=C(c1cc2ccccc2o1)N1CCN(CCCN2CCCCC2)CC1` [Compound A12B12, Benzofuran-2-yl-(4-(3-(piperidin-1-yl)propyl)piperazin-1-yl)methanone, dihydrochloride]: the inhibition at 3.5 µM in data set [1] amounted to 70%. The inhibition constant (Ki) in data set [1] (setting [2]) came to 19 nM.

The compound `COc1ccc2oc(C(=O)N3CCN(CCCN4CCCCC4)CC3)cc2c1` [Compound A13B12] gave an inhibition at 3.5 µM in data set [1] of 60%. The inhibition constant Ki in data set [1] (setting [2]) came out at 16 nM. As to `O=C(Cc1c[nH]c2ccccc12)N1CCN(CCCN2CCCCC2)CC1` [Compound A14B12], in data set [1], affinity was put at a Ki of 10 nM, the inhibition at 3.5 µM amounted to 73% and the “[35S]GTPγS binding Ki(nM)” value is recorded as “low nanomolar range”.

In the case of `O=C(Cc1ccc(-c2ccccc2)cc1)N1CCN(CCCN2CCCCC2)CC1` [Compound A15B12], in data set [1], the affinity corresponds to a Ki of 51 nM and the inhibition at 3.5 µM is 56%.

For `O=C(CC1c2ccccc2-c2ccccc21)N1CCN(CCCN2CCCCC2)CC1` [Compound A18B12, 2-(9H-Fluoren-9-yl)-1-(4-(3-(piperidin-1-yl)propyl)piperazin-1-yl)ethanone, dihydrochloride], in data set [1], the inhibition at 3.5 µM came to 74% and the “[35S]GTPγS binding Ki(nM)” value was “low nanomolar range”. For the same compound, the inhibition constant Ki in data set [1] (setting [2]) is 7.4 nM. With `O=C(c1cccc(Oc2ccccc2)c1)N1CCN(CCCN2CCCCC2)CC1` [Compound A21B12], 3.5 µM produced 62% inhibition in data set [1]. Further, the inhibition constant (Ki) in data set [1] (setting [2]) was 23 nM.
